The values below come from patent US20250353833A1, “DPP9 BINDING COMPOUNDS” (UNIVERSITEIT ANTWERPEN, priority 2022, published 2025).

Counter-ions that a name gives are not always drawn. A value given as a limit tells only on which side of the number the result lay.

In the first assay the target is DPP9 (Homo sapiens (Human), UniProt Q86TI2). As to the kind of experiment: DPP9 enzyme inhibition, IC50 measurement (Ala-Pro-pNA release). The class given is biochemical.
DPP9, sequence (Q86TI2 whole entry): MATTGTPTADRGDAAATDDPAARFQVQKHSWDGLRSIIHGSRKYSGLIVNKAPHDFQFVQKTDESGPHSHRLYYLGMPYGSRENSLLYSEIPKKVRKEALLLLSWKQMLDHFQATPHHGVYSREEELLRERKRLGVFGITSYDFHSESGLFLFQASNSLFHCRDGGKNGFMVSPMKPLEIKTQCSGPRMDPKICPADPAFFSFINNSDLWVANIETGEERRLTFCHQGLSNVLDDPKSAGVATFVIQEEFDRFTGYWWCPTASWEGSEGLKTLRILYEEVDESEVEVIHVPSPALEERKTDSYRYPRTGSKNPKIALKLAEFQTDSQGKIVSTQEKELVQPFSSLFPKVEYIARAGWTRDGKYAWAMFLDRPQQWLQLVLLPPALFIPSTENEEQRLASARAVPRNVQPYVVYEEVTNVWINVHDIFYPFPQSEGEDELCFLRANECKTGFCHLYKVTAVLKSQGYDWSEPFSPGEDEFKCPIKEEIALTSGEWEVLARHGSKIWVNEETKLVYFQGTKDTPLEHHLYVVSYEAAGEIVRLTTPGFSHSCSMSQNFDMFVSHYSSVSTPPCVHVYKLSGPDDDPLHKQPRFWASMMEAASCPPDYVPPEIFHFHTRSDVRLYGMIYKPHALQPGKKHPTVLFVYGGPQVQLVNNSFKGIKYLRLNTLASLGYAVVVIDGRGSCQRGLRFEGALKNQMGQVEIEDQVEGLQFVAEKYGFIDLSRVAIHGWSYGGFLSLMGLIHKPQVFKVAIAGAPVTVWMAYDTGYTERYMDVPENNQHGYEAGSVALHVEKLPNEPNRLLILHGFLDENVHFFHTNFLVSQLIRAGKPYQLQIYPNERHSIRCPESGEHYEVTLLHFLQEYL
Conditions: not given
How it is done:
DPP4 was purified from human seminal plasma as described previously.^[3]
IC50 measurements. […] The Magellan software was used to process the data, which was then fitted using a non-linear fit model in GraFit 7. […] As a blank, the assay buffer was used instead of the enzyme. Screening measurements were carried out in duplo and IC50 values were determined in triplo with at least eight different inhibitor concentrations as described by Van Goethem et al.
Regarding `N#C[C@@H]1[C@@H]2C[C@@H]2CN1C(=O)CNC12CC3CC(CC(O)(C3)C1)C2` [Compound 5l, (1R,2S,5S)-3-((3-hydroxyadamantan-1-yl)glycyl)-3-azabicyclo[3.1.0]hexane-2-carbonitrile], the DPP9/8 selectivity index was more than 10.

The same assay, now with this note: Table 3; mean ± SD (n = 3); read-out: DPP9 IC50 ± SD.
Broadly, the IC50 is the midpoint of a concentration-inhibition curve. Turning to `CCCCNC12CC3CC(C1)CC(NCC(=O)N1Cc4ccccc4C1)(C3)C2` [Compound 25, 2-((3-(butylamino)adamantan-1-yl)amino)-1-(isoindolin-2-yl)ethan-1-one 2,2,2-trifluoroacetate], the 50% inhibitory concentration (IC50) turned out to be 477 ± 28 nM.

The assay is the same for the next values; noted with them: Table 3; selectivity index, DPP8 IC50 over DPP9 IC50.
For `CCCCNC12CC3CC(C1)CC(NCC(=O)N1Cc4ccccc4C1)(C3)C2` [Compound 25, 2-((3-(butylamino)adamantan-1-yl)amino)-1-(isoindolin-2-yl)ethan-1-one 2,2,2-trifluoroacetate], the “SI DPP9/8” value was more than 21.

The assay is the same for the next values; noted with them: Table 4; selectivity index.
Turning to `Cl.O=C(NC12CC3CC(CC(NCC(=O)N4Cc5ccc(F)cc5C4)(C3)C1)C2)c1ccc(-c2ccccc2)cc1` [Compound 87, N-((1s,3r,5R,7S)-3-((2-(5-fluoroisoindolin-2-yl)-2-oxoethyl)amino)adamantan-1-yl)-[1,1′-biphenyl]-4-carboxamide hydrochloride], the “SI DPP9/DPP8” value is given as 54.

`Cl.O=C(NC12CC3CC(CC(NCC(=O)N4Cc5ccc(F)cc5C4)(C3)C1)C2)c1ccc(-c2ccccc2)nc1` [Compound 89, N-((1s,3r,5R,7S)-3-((2-(5-fluoroisoindolin-2-yl)-2-oxoethyl)amino)adamantan-1-yl)-6-phenylnicotinamide hydrochloride]: the “SI DPP9/DPP8” value was determined as 28. As for `Cl.O=C(NC12CC3CC(CC(NCC(=O)N4Cc5ccc(F)cc5C4)(C3)C1)C2)c1ccc(-c2cccs2)cc1` [Compound 92, N-((1s,3r,5R,7S)-3-((2-(5-fluoroisoindolin-2-yl)-2-oxoethyl)amino)adamantan-1-yl)-4-(thiophen-2-yl)benzamide hydrochloride], the “SI DPP9/DPP8” value is reported as 27. Consider `Cl.O=C(NC12CC3CC(CC(NCC(=O)N4Cc5ccc(F)cc5C4)(C3)C1)C2)c1ccc(-c2ccc(F)cc2)cc1` [Compound 93, 4′-fluoro-N-((1s,3r,5R,7S)-3-((2-(5-fluoroisoindolin-2-yl)-2-oxoethyl)amino)adamantan-1-yl)-[1,1′-biphenyl]-4-carboxamide hydrochloride], for which the “SI DPP9/DPP8” value was found to be 59. On the same count and under the same terms, for `Cl.O=C(NC12CC3CC(CC(NCC(=O)N4Cc5ccc(F)cc5C4)(C3)C1)C2)c1ccc(-c2ccccc2F)cc1` [Compound 94, 2′-fluoro-N-((1s,3r,5R,7S)-3-((2-(5-fluoroisoindolin-2-yl)-2-oxoethyl)amino)adamantan-1-yl)-[1,1′-biphenyl]-4-carboxamide hydrochloride] the value was 26; for `Cl.N#Cc1ccc(C(=O)NC23CC4CC(CC(NCC(=O)N5Cc6ccc(F)cc6C5)(C4)C2)C3)cc1` [Compound 96, 4-cyano-N-((1s,3r,5R,7S)-3-((2-(5-fluoroisoindolin-2-yl)-2-oxoethyl)amino)adamantan-1-yl)benzamide hydrochloride], 12. Still for that read-out and setting: the same measure for `Cl.O=C(NC12CC3CC(CC(NCC(=O)N4Cc5ccc(F)cc5C4)(C3)C1)C2)c1ccc(-c2ccccc2)s1` [Compound 97, N-((1s,3r,5R,7S)-3-((2-(5-fluoroisoindolin-2-yl)-2-oxoethyl)amino)adamantan-1-yl)-5-phenylthiophene-2-carboxamide hydrochloride]: 11; for `Cl.O=C(NC12CC3CC(CC(NCC(=O)N4Cc5ccc(F)cc5C4)(C3)C1)C2)c1cnc2ccccc2c1` [Compound 99, N-((1s,3r,5R,7S)-3-((2-(5-fluoroisoindolin-2-yl)-2-oxoethyl)amino)adamantan-1-yl)quinoline-3-carboxamide hydrochloride]: 13. As for `Cl.O=C(NC12CC3CC(CC(NCC(=O)N4Cc5ccc(F)cc5C4)(C3)C1)C2)c1ccc(-c2cccs2)nc1` [Compound 100, N-((1s,3r,5R,7S)-3-((2-(5-fluoroisoindolin-2-yl)-2-oxoethyl)amino)adamantan-1-yl)-6-(thiophen-2-yl)nicotinamide hydrochloride], the “SI DPP9/DPP8” value was 22. Same read-out and setting: the same measure for `Cl.O=C(NC12CC3CC(CC(NCC(=O)N4Cc5ccc(F)cc5C4)(C3)C1)C2)c1cccc(-c2ccccc2)c1` [Compound 101, N-((1s,3r,5R,7S)-3-((2-(5-fluoroisoindolin-2-yl)-2-oxoethyl)amino)adamantan-1-yl)-[1,1′-biphenyl]-3-carboxamide hydrochloride]: 4; for `Cl.O=C(CNC12CC3CC(C1)CC(NS(=O)(=O)c1ccc(-c4ccccc4)cc1)(C3)C2)N1Cc2ccc(F)cc2C1` [Compound 102, N-((1s,3r,5R,7S)-3-((2-(5-fluoroisoindolin-2-yl)-2-oxoethyl)amino)adamantan-1-yl)-[1,1′-biphenyl]-4-sulfonamide hydrochloride]: 4; for `COC(=O)c1csc(-c2ccc(C(=O)NC34CC5CC(CC(NCC(=O)N6Cc7ccc(F)cc7C6)(C5)C3)C4)cc2)c1.Cl` [Compound 103, Methyl 5-(4-((-3-((2-(5-fluoroisoindolin-2-yl)-2-oxoethyl)amino)adamantan-1-yl)carbamoyl)phenyl)thiophene-3-carboxylate hydrochloride]: 25. As to `COC(=O)c1ccc(-c2ccc(C(=O)NC34CC5CC(CC(NCC(=O)N6Cc7ccc(F)cc7C6)(C5)C3)C4)cc2)cc1` [Compound 104, Methyl 4′-((-3-((2-(5-fluoroisoindolin-2-yl)-2-oxoethyl)amino)adamantan-1-yl)carbamoyl)-[1,1′-biphenyl]-4-carboxylate hydrochloride], the “SI DPP9/DPP8” value came to 46. Still for that read-out and setting: for `Cl.O=C(NC12CC3CC(CC(NCC(=O)N4Cc5ccc(F)cc5C4)(C3)C1)C2)c1ccc(-c2ccc(O)cc2)cc1` [Compound 105, N-(-3-((2-(5-fluoroisoindolin-2-yl)-2-oxoethyl)amino)adamantan-1-yl)-4′-hydroxy-[1,1′-biphenyl]-4-carboxamide hydrochloride] the value was 27.

On to `O=C(CNC12CC3CC(C1)CC(Nc1ccc(-c4ccccc4)nc1)(C3)C2)N1Cc2ccc(F)cc2C1` [Compound 109, 1-(5-fluoroisoindolin-2-yl)-2-((-3-((6-phenylpyridin-3-yl)amino)adamantan-1-yl)amino)ethan-1-one dihydrochloride], for which the “SI DPP9/DPP8” value came out at 2. On the same count and under the same terms, for `O=C(CCCCC1SCC2NC(=O)NC21)NCCOCCOCCOCCNC(=O)NC12CC3CC(CC(NCC(=O)N4Cc5cc(F)c(F)cc5C4)(C3)C1)C2` (stereo not drawn) [Compound 115, N-(1-((3-((2-(5,6-difluoroisoindolin-2-yl)-2-oxoethyl)amino)adamantan-1-yl)amino)-1-oxo-5,8,11-trioxa-2-azatridecan-13-yl)-5-(2-oxohexahydro-1H thieno[3,4-d]imidazol-4-yl)pentanamide] the value was 7. Turning to `CC[N+]1=C(/C=C/C=C2/N(CCCCCC(=O)NC34CC5CC(CC(NCC(=O)N6Cc7ccc(F)cc7C6)(C5)C3)C4)c3ccc(S(=O)(=O)O)cc3C2(C)C)C(C)(C)c2cc(S(=O)(=O)[O-])ccc21` [Compound 120, 1-ethyl-2-((E)-3-((E)-1-(6-((-3-((2-(5-fluoroisoindolin-2-yl)-2-oxoethyl)amino)adamantan-1-yl)amino)-6-oxohexyl)-3,3-dimethyl-5-sulfoindolin-2-ylidene)prop-1-en-1-yl)-3,3-dimethyl-3H-indol-1-ium-5-sulfonate], the “SI DPP9/DPP8” value is 21.

Still in this assay, the particulars now being: read-out: IC50 DPP9.
Consider `COC(=O)c1ccc(-c2ccc(C(=O)NC34CC5CC(CC(NCC(=O)N6Cc7ccc(F)cc7C6)(C5)C3)C4)cc2)cc1` [Compound 104, Methyl 4′-((-3-((2-(5-fluoroisoindolin-2-yl)-2-oxoethyl)amino)adamantan-1-yl)carbamoyl)-[1,1′-biphenyl]-4-carboxylate hydrochloride], for which the IC50 is 1 nM.
